Data on 69 molecules can be found in ChEMBL document CHEMBL3507680, “University of Dundee, Gates Library screen for HepG2 cell viability”.

This series can be described thus: Human HepG2 cell viability assay in 384 well format. The series is classed as toxicity, cell-based. On the set-up: dose 125 nL, time 70.5 hour; concentration not given beside the values. The conditions noted are these: HepG2 cells, read-out: Inhibition.

The structures appear in SMILES notation.

For the molecule `CC(C)NC(=O)[C@H]1C[C@@H]2CN(C(=O)NC(C)C)C[C@H]1O2`, the cytotoxicity at 70.5 h is -10.3%. With `O=C(Cc1ccco1)N1C[C@H]2CCC[C@@]2(COCc2cccnc2)C1`, the cytotoxicity at 70.5 h is -10.4%. Next, `O=C(Cc1ccco1)N1C[C@H]2CCC[C@@]2(COc2cccnc2)C1`: -5.14%; `O=C(Cc1ccco1)N1C[C@H]2CCC[C@@]2(COCC2CC2)C1`: -11.1%. The value for `Cc1cccc(COC[C@@]23CCC[C@@H]2CN(C(=O)Cc2ccco2)C3)n1` was -8.53%; that for `Cc1nnc([C@H]2C[C@H]3CN(C(=O)Cc4ccc(F)cc4)CC[C@@H]3O2)o1` was -6.08%; that for `Cc1cc2c(N3CCC(N(C)Cc4cnn(C)c4)CC3)ncnc2s1` was -3.32%. `Cc1nccc(-c2ccccc2)c1C(=O)N1CC[C@](C)(O)C(C)(C)C1`: the cytotoxicity at 70.5 h turned out to be 1.9%. Take `O=C1CCCCCN1CCC(=O)N1CCCC(c2ccn[nH]2)C1` (centres undefined): the cytotoxicity at 70.5 h was -9.01%. For `Cc1ccc2c(c1)SCC(=O)N2CC(=O)N1CCCC1c1cc(C)on1` (centres undefined), the cytotoxicity at 70.5 h was -1.98%. Next, `O=C(Nc1ccccc1)c1cc2n(n1)CCCN(C(=O)N1CCCC1)C2`: 22.6%; `CNc1nc(C(=O)N2CCC3(CCCN(CC4CC4)C3=O)C2)cs1` (centres undefined): -1.68%.

Regarding `CN1CCC(N(Cc2ccncc2)Cc2nc3c(s2)CCCC3)CC1`, the cytotoxicity at 70.5 h is -11.2%. Next, `O=C1CC[C@@H](CN(Cc2ccncc2)Cc2nc(-c3cccs3)no2)N1`: -3.48%. As to `c1ccc(-c2nc3c(c(NCc4nnc5n4CCC5)n2)CCNC3)cc1`, the cytotoxicity at 70.5 h is -7.92%. The value for `Cc1ccnn1CCC(=O)N(Cc1ccsc1)CC(C)C` was -2.24%; that for `O=C1OC2(CCN(CC3CCCO3)CC2)CN1CCc1ccccc1` (centres undefined) was 2.25%.

Turning to `CN(CCc1ccccc1)C(=O)CN1C(=O)OC[C@@H]1c1ccccc1`, the cytotoxicity at 70.5 h was determined as 23.5%. On to `O=C1CCC(c2ccccc2)(c2ccccc2)CN1CCO`, for which the cytotoxicity at 70.5 h was -3.47%.

`Cn1c(N2CCOCC2)nc2cc(C(=O)N3CC(O)CO3)ccc21` (centres undefined): the cytotoxicity at 70.5 h was 32.1%. Next, `CN(C)C1(CNc2nccc(C3CCCC3)n2)CCOCC1`: -4.46%. Next, `C[C@@H]1CN(C2(C(=O)N3CCSCC3)Cc3ccccc3C2)C[C@H](C)O1`: 2.94%. The value for `FC(F)(F)c1ccnc(N2CCCC(N3CCOCC3)C2)c1` (centres undefined) was 9.74%; that for `Oc1ccccc1-c1cc(-c2nc(C3CC3)n[nH]2)[nH]n1` was -6.44%. In the case of `Cc1ccc(-c2ccnc(N3CCC4(CC3)CNC(=O)C4)n2)c(C)n1`, the cytotoxicity at 70.5 h stood at 15.1%. Consider `C[C@@H]1CN(c2nc(N)nc3c2CCC3)C[C@]1(C)O`, for which the cytotoxicity at 70.5 h was 1.03%.

With `CCn1cncc1-c1nc2c([nH]1)CC(C)(C)CNC2=O`, the cytotoxicity at 70.5 h is -3.18%. Next, `CC(C)(C)c1ccc(-n2ncc3c2CCCC3N)cc1` (centres undefined): -3.43%. The value for `CCc1nc(C)c(CN2CCN(c3ncnc4scc(C)c34)CC2)[nH]1` was -9.72%; that for `CCc1noc(C2CC(=O)N(CCN(C)C)C2)n1` (centres undefined) was -3.23%. Next, `CN1CCN2CCN(Cc3cc(=O)n4c5c(cccc35)CCC4)CC2C1` (centres undefined): -13.5%; `CCCc1n[nH]c(=O)n1Cc1ccccc1F`: 2.4%. Consider `Cc1cc2cc(NC(=O)Cn3ncc(N4CCCC4)cc3=O)ccc2o1`, for which the cytotoxicity at 70.5 h worked out at 15.3%. Regarding `CSCC(=O)N1C[C@H](c2ccc(C)o2)[C@@H](N)C1`, the cytotoxicity at 70.5 h was -3.37%. As to `Oc1cccc(CN2CCN(c3nccc(CCC(F)(F)F)n3)CC2)c1`, the cytotoxicity at 70.5 h is -3.66%.

In the case of `O=C(O)c1ccc(C2CCCN(C(=O)c3ccc[nH]3)C2)cc1` (centres undefined), the cytotoxicity at 70.5 h is -6.26%. Take `O=C1CC(C(=O)NCCN2CCOC2=O)c2cc(F)ccc2N1` (centres undefined): the cytotoxicity at 70.5 h is 2.37%. Consider `CC(C)c1nnc(N2C[C@@H](CN(C)CCO)[C@@H](CO)C2)s1`, for which the cytotoxicity at 70.5 h was 12.7%. Regarding `CS(=O)(=O)NCC(=O)N[C@H]1CN(CC2CC2)C[C@@H]1c1ccccc1`, the cytotoxicity at 70.5 h is -9.72%. Next, `O=C1CCC(CCC(=O)N2CCC2c2cccs2)=NN1` (centres undefined): -13.3%. Take `O=C(c1n[nH]c2c1CCC2)N1CCCC1c1nc(-c2ccccn2)no1` (centres undefined): the cytotoxicity at 70.5 h is -3.03%. The value for `CCn1ccnc1CN1CCCC(N(C)CCc2ccccc2)C1` (centres undefined) was -1.22%; that for `Cc1nccn1Cc1nnc(C2CCCN(c3ncccn3)C2)n1C` (centres undefined) was 15.5%. Consider `O=C1CN(CCCNC(=O)Nc2cccc(Cl)c2F)CCN1`, for which the cytotoxicity at 70.5 h was -2.99%.

Turning to `Cn1ccnc1CN(CCO)C(=O)c1cc2ccccc2o1`, the cytotoxicity at 70.5 h stood at 9.95%. The value for `COc1ccccc1S(=O)(=O)N1CCN(C)[C@@H]2CS(=O)(=O)C[C@@H]21` was 24.4%; that for `Cc1n[nH]c(SCCNC2CCN(c3nc4ccccc4s3)CC2)n1` was 2%. `CN(C)S(=O)(=O)CCNc1ncc2c(n1)CCN2c1ccccc1`: the cytotoxicity at 70.5 h is -6.26%. For the molecule `CNc1ccnc(NCCSc2nccn2C)n1`, the cytotoxicity at 70.5 h is -1.64%. Next, `Cc1cc(N2CCCN(C(=O)Cc3cc(F)cc(F)c3)CC2)ccn1`: -1.71%. As for `CC1(C)[C@H]2CC=C(CN3CCCn4nc(C(=O)NCCO)cc4C3)[C@@H]1C2`, the cytotoxicity at 70.5 h was -4.77%. The value for `COc1cc(-c2cnnc(NCCSC)n2)cc(OC)c1OC` was -5.18%; that for `CCc1nn(C)c(Cl)c1CN(CCOC)Cc1cnn(C)c1` was 0.921%; that for `Cc1ccc2nc(CN3CCC(O)(Cn4ccnc4)CC3)cc(O)c2c1` was -7.59%. The value for `Cc1ccsc1CCNC(=O)CCC(=O)NC1CCCC1` was -15.3%.

With `Cn1ccnc1C1CCCN(C(=O)c2ccncc2F)C1` (centres undefined), the cytotoxicity at 70.5 h was -5.94%. For `CCC[C@H]1CN(CCCO)C[C@@H]1NC(=O)Cn1cc(C)cn1`, the cytotoxicity at 70.5 h was -4.28%. On to `O=C(c1coc(COc2cccc3cnccc23)n1)N1CCSCC1`, for which the cytotoxicity at 70.5 h was -5.09%. For the molecule `CCSCCNc1cc(C)nc2c(C)c(C)nn12`, the cytotoxicity at 70.5 h is -4.65%. For `COc1cccc(-c2n[nH]c3c2CN(C(=O)c2oc(C)cc2C)CC3)c1`, the cytotoxicity at 70.5 h is -0.91%. In the case of `Cc1ccc([C@@H]2CN(S(=O)(=O)c3ccccc3)C[C@H]2N(C)C)cc1`, the cytotoxicity at 70.5 h was -9.61%.

As for `Cc1cnc(C)c(N2CCC3(CCCN(C4CCOCC4)C3=O)C2)n1` (centres undefined), the cytotoxicity at 70.5 h is -8.78%. As to `CC(C)N1C(=O)C2(CCN(C)CC2)c2cc(F)ccc21`, the cytotoxicity at 70.5 h is -7.44%. `Cc1ccsc1C(=O)N1CCc2ncc(CN3CCCC3)n2CC1`: the cytotoxicity at 70.5 h was -4.02%. The value for `O=C1COC2(COCCN(c3ccccn3)C2)CN1c1cccc(F)c1` (centres undefined) was -9.76%; that for `CN1C(=O)CC(c2ccncc2)C12CCN(c1ncccn1)CC2` (centres undefined) was -0.583%; that for `CN1CC[C@@H]2[C@@H](CO[C@H]2CNC(=O)c2nccn2C)C1` was -4.99%. For `COc1ccccc1CN1CC[C@]2(C[C@@H](OCC(=O)N(C)C)CO2)C1`, the cytotoxicity at 70.5 h was -3.75%. In the case of `CC(=O)c1ccc(NC(=O)c2ccc3c(c2)C2(CCCCC2)CN3)cc1`, the cytotoxicity at 70.5 h is -9.32%.
